Laboratory results published in patent US20250197485A1, “Anti-ED-A Antibodies for the Treatment of Pulmonary Hypertension” (Universitätsklinikum Jena, priority 2022, published 2025).

Assays:
[1] = test system: MCT-induced PH; assay: Histological evaluation of lung tissue damage (sum-score) in mouse model of MCT-induced PH; type: in vivo, C57BL/6 mice; conditions: MAC p=0.020; F8 IgG p=0.005; KSF IgG p=0.907
Excerpt: PH was induced in C57BL/6 mice (bodyweight: 25-30 g). The animals were obtained from ZET facility (Zentale Experimentelle Tierhaltung) of the University Hospital Jena (UKJ, Jena, Germany). Prior to PH induction, mice were allowed to acclimatize for at least 7 days with ad libitum access to food and water as well as controlled light/dark cycles. 41 animals were investigated divided into the following five experimental groups: • 1) sham induced controls (n=7) • 2) MCT induced PH (n=12) • 3) MCT induced PH+MAC (n=6) • 4) MCT induced PH+F8 IgG (n=8) • 5) MCT induced PH+KSF IgG (n=8) For PH induction, the Monocrotaline (MCT, Carl Roth, Germany) method was used. The sham induced controls were injected with 30 μl NaCl not containing MCT at day 1 (single dose; intraperitoneally, i.p.). […] The other 4 experimental groups were injected with MCT to induce PH (single dose; intraperitoneally, i.p.; 60 mg/kg body weight; volume 30 μl). Animals in the MCT induced PH+MAC group received the drug (Macitentan, Actelion Pharmaceuticals Ltd.) from day 14 to day 28 (once daily; per os; 15 mg/kg body weight). Animals in the MCT induced PH+F8 IgG group received F8 IgG 3 times on day 14, 16 and 18 (intravenously, i.v.; 195 μg/injection; volume 200 μl). Similarly, animals in the MCT induced PH+KSF IgG group received KSF IgG 3 times on day 14, 16 and 18 (intravenously, i.v.; 195 μg/injection; volume 120 μl). Microscopic evaluation to assess histopathological lung tissue damage was performed using H&E as well as Sirius Red stained lung tissue sections according to a defined sum-score (between 0 and 12; maximum score value=highest level of tissue damage) integrating certain histological alterations frequently occurring in PH: percentage of atelectasis area, percentage of emphysema area, degree of media hypertrophy of peribronchial arteries, presence of perivascular cellular edema of peribronchial arteries, and degree of media hypertrophy of small arteries. Statistical analyses were performed using IBM SPSS statistical software, version 28.0 (IBM SPSS Statistics for Windows. Armonk, NY, USA). Data are expressed as mean±standard deviation. Kruskal-Wallis and Mann-Whitney-U test were used to test for significant differences between the different groups. A p-value<0.05 as statistically significant.

[2] = test system: MCT-induced PH; assay: Right heart catheterization (RVPsys) in mouse model of MCT-induced PH; type: in vivo, C57BL/6 mice; conditions: day 28; F8 IgG 195 μg i.v. day 14, 16, 18 (p=0.010); MAC 15 mg/kg per os once daily day 14-28 (n.s.)
Excerpt: PH was induced in C57BL/6 mice (bodyweight: 25-30 g). The animals were obtained from ZET facility (Zentale Experimentelle Tierhaltung) of the University Hospital Jena (UKJ, Jena, Germany). Prior to PH induction, mice were allowed to acclimatize for at least 7 days with ad libitum access to food and water as well as controlled light/dark cycles. 41 animals were investigated divided into the following five experimental groups: • 1) sham induced controls (n=7) • 2) MCT induced PH (n=12) • 3) MCT induced PH+MAC (n=6) • 4) MCT induced PH+F8 IgG (n=8) • 5) MCT induced PH+KSF IgG (n=8)
For PH induction, the Monocrotaline (MCT, Carl Roth, Germany) method was used.
The sham induced controls were injected with 30 μl NaCl not containing MCT at day 1 (single dose; intraperitoneally, i.p.). […] The other 4 experimental groups were injected with MCT to induce PH (single dose; intraperitoneally, i.p.; 60 mg/kg body weight; volume 30 μl). Animals in the MCT induced PH+MAC group received the drug (Macitentan, Actelion Pharmaceuticals Ltd.) from day 14 to day 28 (once daily; per os; 15 mg/kg body weight). Animals in the MCT induced PH+F8 IgG group received F8 IgG 3 times on day 14, 16 and 18 (intravenously, i.v.; 195 μg/injection; volume 200 μl). Similarly, animals in the MCT induced PH+KSF IgG group received KSF IgG 3 times on day 14, 16 and 18 (intravenously, i.v.; 195 μg/injection; volume 120 μl).
On day 28 after MCT injection, mice of all experimental groups were deeply anesthetized with a single dose of 100 mg/kg body weight ketamine and 10 mg/kg body weight Xylazin in approximately 60 μl each administered i.p.
Right heart catheterization using a 1.4 F micro conductance pressure-volume catheter (Model SPR-839; Millar Instruments Inc; PowerLab system, ADInstruments Ltd., Oxford, UK) was performed via the right vena jugularis interna to measure the systolic right ventricular pressure and thereby verify the success of the experimental setting. Mice were then sacrificed in deep anesthesia and analgesia to carry out cardiac blood collection after thoracotomy and to harvest the organs.
Statistical analyses were performed using IBM SPSS statistical software, version 28.0 (IBM SPSS Statistics for Windows. Armonk, NY, USA). Data are expressed as mean±standard deviation. Kruskal-Wallis and Mann-Whitney-U test were used to test for significant differences between the different groups. A p-value<0.05 as statistically significant.

## KSF IgG: Negative control chimaeric antibody specific for hen egg lysozyme, an irrelevant antigen; heavy chain SEQ ID NO: 15, light chain SEQ ID NO: 16 [reference compound]
[1]
  histopathological lung tissue damage (sum-score 0 to 12) compared to the MCT-induced PH group without treatment: No reduction

## CCCNS(=O)(=O)Nc1ncnc(OCCOc2ncc(Br)cn2)c1-c1ccc(Br)cc1 [MAC, Macitentan, reference compound]
[2]
  attenuation in RVPsys compared to the MCT-induced PH group without treatment (positive control): not significant
[1]
  histopathological lung tissue damage (sum-score 0 to 12) compared to the MCT-induced PH group without treatment: significantly reduced
